Experimental data: EPA's ToxValDB 9.5
“And” between values parts separate entries of the source, which are not always exact repeats. Equal values may be shown once.

System: Rattus norvegicus
Conditions: oral
[1] = chronic, duration: 6 months, drinking water, M/F, Sprague-Dawley, Morris water maze (escape time, acquisition, day 6)
[2] = chronic, duration: 6 months, drinking water, M, Wistar, open field (entries to neighboring grids, day 1) + Y-maze (correct responses, day 9)
[3] = chronic, duration: 6 months, drinking water, M, Wistar, open field (standing attempts, day 1) + open field (standing attempts, day 9) + open field (time in central grid, day 1) + Y-maze (correct …
[4] = developmental, drinking water, M/F, Wistar, generation: F1, F1: active avoidance (shuttle box, conditioned avoidance response, day 2)
[5] = developmental, drinking water, M/F, Wistar, generation: F1, F1: maze test (latency to complete, day 1) + F1: maze test (latency to complete, day 5) + F1: maze test (number entries into blind alleys, …
[6] = developmental, drinking water, M, Wistar, generation: F1, F1: elevated plus maze (open arm entries) + F1: elevated plus maze (time in open arms) + F1: open field (grooming events) + F1: open field (…

[F-].[Na+] [Sodium fluoride]
LOEL (chronic, duration: 5 months, drinking water, Sprague-Dawley, Y-maze (number of correct responses over 10 trainings after 24 hours) + Y-maze (number of training runs to meet learning standard 90%)): 9.8 mg/kg-day
LOEL (chronic, duration: 5 months, drinking water, Wistar, Y-maze (number of training runs to achieve 9 consecutive correct responses)): 6.91 mg/kg-day
NOEL (chronic, duration: 6 months, drinking water, M/F, Sprague-Dawley, Morris water maze (escape time, acquisition, day 1)): 3.28 mg/kg-day and 3.27 mg/kg-day
LOEL [1]: 3.27 mg/kg-day
NOEL [1]: 0.33 mg/kg-day
LOEL (chronic, duration: 6 months, drinking water, M/F, Sprague-Dawley, Morris water maze (escape time, acquisition, day 6) + Morris water maze (escape time, probe test, day 7)): 0.33 mg/kg-day
LOEL (chronic, duration: 6 months, drinking water, M/F, Sprague-Dawley, Morris water maze (escape time, acquisition, day 6) + Morris water maze (time in platform area, probe test, day 7) + Morris water maze (time…): 0.33 mg/kg-day
NOEL (chronic, duration: 6 months, drinking water, M/F, Sprague-Dawley, Morris water maze (platform crossing, probe test, day 7)): 3.27 mg/kg-day
LOEL (chronic, duration: 6 months, drinking water, M/F, Sprague-Dawley, Morris water maze (time in platform area, probe test, day 7)): 0.33 mg/kg-day
LOEL (chronic, duration: 6 months, drinking water, M, Wistar, Y-maze (time to meet learning standard 90%)): 3.34 mg/kg-day
LOEL [2]: 10 mg/kg-day
NOEL [2]: 6.67 mg/kg-day
NOEL (chronic, duration: 6 months, drinking water, M, Wistar, open field (entries to neighboring grids, day 9) + open field (time in central grid, day 9)): 10 mg/kg-day
LOEL [3]: 6.67 mg/kg-day
NOEL [3]: 3.34 mg/kg-day
LOEL (chronic, duration: 10 months, drinking water, M/F, Sprague-Dawley, Morris water maze (escape time, acquisition, average over days 1-6) + Morris water maze (platform crossing, probe test, day 7)): 2.16 mg/L urine
LOEL (chronic, duration: 14 weeks, drinking water, M, Wistar, sexual behavior (ejaculation frequency) + sexual behavior (ejaculation latency) + sexual behavior (intromission latency) + sexual behavior (…): 6.67 mg/kg-day
NOEL (chronic, duration: 115 days, drinking water, M, Wistar, open field (squares crossed)): 6.67 mg/kg-day
LOEL (chronic, duration: 115 days, drinking water, M, Wistar, plank walking (narrow, distance traveled) + plank walking (narrow, number of turns) + plank walking (wide, distance traveled) + plank …): 6.67 mg/kg-day
LOEL (developmental, diet, M/F, Sprague-Dawley, generation: F1, F1: Morris water maze (escape time, acquisition, day 6) + F1: Morris water maze (platform crossing, probe test, day 7) + F1: Morris water …): 8.52 mg/L urine
NOEL (developmental, drinking water, F, Wistar, generation: F1, F1: cliff avoidance + F1: ear opening + F1: negative geotaxis + F1: surface righting): 0.54 mg/kg-day
LOEL (developmental, drinking water, F, Wistar, generation: F1, F1: elevated plus maze (open arm entries) + F1: elevated plus maze (time in open arms) + F1: open field (grooming events) + F1: open field (…): 0.27 mg/kg-day
NOEL (developmental, drinking water, F, Wistar, generation: F1, F1: elevated plus maze (open arm entries) + F1: open field (defecation) + F1: open field (grooming events) + F1: open field (rearing events…): 0.54 mg/kg-day
LOEL (developmental, drinking water, F, Wistar, generation: F1, F1: elevated plus maze (time in open arms)): 0.27 mg/kg-day
LOEL (developmental, drinking water, F, Wistar, generation: F1, F1: eye opening): 0.27 mg/kg-day
NOEL (developmental, drinking water, F, Wistar, generation: F1, F1: open field (defecation) + F1: open field (rearing events, 15 min)): 0.54 mg/kg-day
LOEL (developmental, drinking water, M/F, Sprague-Dawley, generation: F1, F1: Morris water maze (distance traveled to reach platform, acquisition, day 4) + F1: Morris water maze (latency to reach platform, …): 1.63 mg/kg-day
LOEL (developmental, drinking water, M/F, Sprague-Dawley, generation: F1, F1: Morris water maze (escape time, acquisition, average over days 1-6) + F1: Morris water maze (platform crossing, probe test, day 7) + F1…): 3.27 mg/kg-day
NOEL (developmental, drinking water, M/F, Sprague-Dawley, generation: F1, F1: Morris water maze (swim speed to reach platform, acquisition, day 4)): 6.53 mg/kg-day
LOEL [4]: 4.35 mg/kg-day
NOEL [4]: 2.18 mg/kg-day
LOEL (developmental, drinking water, M/F, Wistar, generation: F1, F1: active avoidance (shuttle box, conditioned avoidance response, day 9) + F1: pain response (hot plate, latency period)): 2.18 mg/kg-day
LOEL (developmental, drinking water, M/F, Wistar, generation: F1, F1: elevated plus maze (open arm entries) + F1: elevated plus maze (time in open arms) + F1: mid-air righting (number of animals successful…): 9.05 mg/kg-day
LOEL [5]: 4.87 mg/kg-day
NOEL [5]: 2.33 mg/kg-day
LOEL (developmental, drinking water, M/F, Wistar, generation: F1, F1: open field (rearing events, day 1) + F1: open field (rearing events, day 3)): 2.33 mg/kg-day
NOEL (developmental, drinking water, M/F, Wistar, generation: F1, F1: open field (squares crossed, day 1) + F1: open field (squares crossed, day 3)): 4.87 mg/kg-day
LOEL (developmental, drinking water, M/F, Wistar, generation: F1, F1: passive avoidance (step-down test, number of shocks, session 2, day 30) + F1: passive avoidance (step-down test, time to move from …): 6.91 mg/kg-day
NOEL (developmental, drinking water, M, Wistar, generation: F1, F1: cliff avoidance + F1: ear opening + F1: negative geotaxis + F1: surface righting): 0.54 mg/kg-day
LOEL [6]: 0.27 mg/kg-day
NOEL [6]: 0.54 mg/kg-day
LOEL (developmental, drinking water, M, Wistar, generation: F1, F1: eye opening): 0.27 mg/kg-day
LOEL (developmental, drinking water, M, Wistar, generation: F1, F1: open field (defecation)): 0.27 mg/kg-day
NOEL (developmental, drinking water, M, Wistar, generation: F1, F1: open field (defecation) + F1: open field (rearing events, 15 min)): 0.54 mg/kg-day
LOEL (developmental, drinking water, M, Wistar, generation: F1, F1: sexual behavior (% of males ejaculating) + F1: sexual behavior (ejaculation frequency) + F1: sexual behavior (ejaculation latency) + F1…): 3.12 mg/kg-day
NOEL (developmental, drinking water, Wistar, generation: F1, F1: Y-maze (error number, 12 weeks) + F1: Y-maze (error number, 6 weeks) + F1: Y-maze (time to meet learning standard 90%, 6 weeks) + F1: Y-…): 2.78 mg/L serum
LOEL (developmental, drinking water, Wistar, generation: F1, F1: Y-maze (time to meet learning standard 90%, 12 weeks) + F1: Y-maze (total reaction time, 6 weeks)): 2.78 mg/L serum
NOEL (developmental, gavage, F, Wistar, generation: F1, F1: active avoidance (shuttle box, conditioned avoidance response, 1st block) + F1: active avoidance (shuttle box, conditioned avoidance …): 2.26 mg/kg-day
